Experiment [1] has as its system inflammatory screens. The experiment in a line: Anti-inflammatory activity, general statements (oral activity, inflammatory screens). In kind it is in vivo. As to the method:
Such inflammatory agents typically include oxazolone, and the like. The reverse passive Arthus test offers another measure of the compound's utility in preventing an inflammatory response (Chang et al. Eur. J. Phar. 69:155-164 (1981)). Test compounds are typically administered intraperitoneally or orally. For intraperitoneal administration, the test compound can be given in dimethyl sulfoxide or in 0.5% methylcellulose 30 minutes prior to administration of the irritant. For oral administration, the test compound can be compounded into tablet or capsule form as well as dissolved in, for example, water or ethanol and swallowed prior to application of the irritant. Results can be expressed as the percent decrease in swelling in the compound-treated animals as compared to control animals that receive only the irritant.

For experiment [2], the system named is plasma fibrinogen. The experiment in a line: Adjuvant arthritis, plasma fibrinogen inhibition in rats. In kind it is in vivo, rat (male Sprague Dawley). The note with it: po, rat; for ED (maximal inhibition) at 100 mg/kg: 0.3 to 100 mg/kg, read-out: AA (p.o.) Dose yielding max inhibition (100 mg/kg).
Experiment [3] relates to reverse passive Arthus reaction. The experiment can be described thus: Reverse Passive Arthus Reaction (RPA). The class given is in vivo, rat (male SD). The note with it: ip, rat. As to the method: Male SD rats weighing between 200 and 300 g were used. Test compounds were dissolved in dimethyl sulfoxide and 1 ml/kg of this stock solution (100 mg/ml), on serial dilutions were injected intraperitoneally one hour before administration of the antigen or given orally. The animals were anesthetized inhalationally with isoflurane and then injected through the penile vein with 1 ml of a solution of 2.5 mg of Evan's blue dye and 5.0 mg of human serum albumin in 1 ml of saline. This treatment was followed immediately by intracutaneous injections of 0.075 ml of anti-human albumin diluted to contain 4.38 mg/ml of antibody at 2 sites opposite the midline back. Anesthesia was terminated and after three hours, the animals were sacrificed. The skin was removed and the blue stained areas cut out. The skin patches were soaked overnight in stoppered tubes containing 2 ml of 1N potassium hydroxide at 5° C. Then 9 ml of a mixture of five parts of a 1.2N phosphoric acid and thirteen parts of acetone were added to the tubes. The tube contents were agitated and centrifuged, and the absorbance measured at 620 nm. The data were calculated as inhibition of blueing by test compound compared to control animals receiving only antigen and antibody.

The subject of experiment [4] is oxazolone-induced ear edema. The experiment can be described thus: Inhibition of ear edema caused by oxazolone. In kind it is in vivo, mouse (CF-1). As to conditions: given orally, mouse, 24 h; dose not given. As to the method:
CF-1 mice, 25-30 g body weight, six animals per group were used. The mice were sensitized to the irritant two weeks prior to the test by dribbling 100 μL of a 3% solution of oxazolone in acetone onto the scrotum of the animal. Test compounds were administered orally at doses of 100 mg/kg and 300 mg/kg for 1 hour prior to oxazolone, intraperitoneally as follows: The test compound was dissolved in dimethyl sulfoxide and doses of 10 mg/kg, 30 mg/kg and 100 mg/kg were injected 15 minutes prior to irritant. The irritant, 3% oxazolone in acetone, was added to the surface of the ear, 5 μl added to the upper surface and 5 μl added to the lower surface. After twenty four hours, the thickness of the ear was measured to 0.01 mm by a micrometer with loose drag, positioned at the lateral-most edge of the mid-point of the pinna. Data were calculated as the inhibition of increased ear thickness compared to control animals' receiving only the irritant. In general, % inhibition of greater than 20% is statistically significant (p<0.05 or less, Student's t-test for unpaired data).

The term ED50 denotes the midpoint of the dose-response relation. A higher ED50 goes with weaker potency.

Take `O=C(Nc1ccc(C(=O)O)cc1)OCCC1c2cc(Cl)ccc2-c2ccc(Cl)cc21` [Example 9]: the “activity when taken orally” value in experiment [1] is “exhibit activity even when taken orally”. In addition, in experiment [2], the ED (maximal inhibition) at 100 mg/kg turned out to be 3 mg/kg. Besides, the 50% effect level in experiment [3] (ED50) was put at a dose of 34 mg/kg.
Consider `Cc1ccc2c(c1)C(CCOC(=O)Nc1ccc(C(=O)O)cc1)c1cc(C)ccc1-2` [Example 8, N-[9H-(2,7-Dimethylfluorenyl-9-ethoxycarbonyl)]amino-4-benzoic acid], for which, in experiment [1], the “activity when taken orally” value was “exhibit activity even when taken orally”. In addition, in experiment [2], the ED (maximal inhibition) at 100 mg/kg worked out at 100 mg/kg. Besides, in experiment [3], the 50% effect level (ED50) was put at a dose of 100 mg/kg.
On to `O=C(Nc1ccc(C(=O)O)cc1)OC1c2ccccc2-c2ccccc21` [N-(9H-fluorenyl-9-oxycarbonyl)-4-aminobenzoic acid], for which, in experiment [1], the “activity when taken orally” value is “exhibit activity even when taken orally”.
Still for that read-out and setting: the entry for `O=C(Nc1ccc(C(=O)NS(=O)(=O)c2ccccc2)cc1)OCCC1c2ccccc2-c2ccccc21` [N-{[9H-(fluorenyl-9-ethoxycarbonyl)]-4-amino-benzoyl}-benzenesulfonamide] is “exhibit activity even when taken orally”.
With `O=C(Nc1ccc(C(=O)O)cc1)OCCC1c2ccccc2-c2ccccc21` [Example 7, N-[9H-(Fluorenyl-9-ethoxycarbonyl)]amino-4-benzoic acid], the “inhibition of increased ear thickness (oxazolone)” value in experiment [4] is recorded as 50%. Also, in experiment [1], the “activity when taken orally” value is listed as “exhibit activity even when taken orally”. In experiment [2], the ED (maximal inhibition) at 100 mg/kg turned out to be 30 mg/kg. For the same compound, the ED (maximal inhibition) in experiment [2] (given orally, read-out: dose achieving maximum inhibition of plasma fibrinogen) is 3 mg/kg. For the same compound, it took a dose of 70 mg/kg to reach the 50% effect level in experiment [3] (ED50).

The values are drawn from patent US5472973A, “Fluorenyl derivatives as anti-inflammatory agents” (Scios Nova Inc., priority 1992, dated 1995).
